Active and inactive are the calls of the source. The calls are words filed in the database; no cut-off is given here. Numbered stars: 1 amine (or outer) side, 2 acyl side, 3 side chain; on linkers, the order of the positions; unused ones are H or OH. Bridge positions count the residues as written; N and C are the ends. Square brackets hold non-standard residues; d marks the D form. Peptide text beside a SMILES is read from it. I, II: the chains in the order shown. Actinocin(9to1) = Cc1c2oc3c(C)ccc(C(=O)[*:1])c3nc-2c(C(=O)[*:2])c(N)c1=O; NMeV = CN[C@H](C(=O)O)C(C)C; Sar = CNCC(=O)O
Experiments:
[1] = target: T1, Bacterial DNA-directed RNA polymerase (Bacteria) (UniProt P0A8V2+P0A7Z4+P0A8T7+P0A800); assay: Inhibition of Escherichia coli DNA-dependent RNA polymerase at 5 ug/ml using Micrococcus luteus DNA as primer; assay type: protein-complex assay
[2] = target: T1, Bacterial DNA-directed RNA polymerase (Bacteria); assay: Inhibition of Escherichia coli DNA-dependent RNA polymerase at 0.05 ug/ml using Micrococcus luteus DNA as primer; assay type: protein-complex assay
[3] = target: T1, Bacterial DNA-directed RNA polymerase (Bacteria); assay: Inhibition of Escherichia coli DNA-dependent RNA polymerase at 0.1 ug/ml using Micrococcus luteus DNA as primer; assay type: protein-complex assay
[4] = target: T1, Bacterial DNA-directed RNA polymerase (Bacteria); assay: Inhibition of Escherichia coli DNA-dependent RNA polymerase at 0.25 ug/ml using Micrococcus luteus DNA as primer; assay type: protein-complex assay
L1210 [5] = assay: Cytotoxicity against mouse L1210 cells at 0.001 ug/ml after 48 hrs; assay type: functional; conditions: L1210, 48 h
[6] = target: T1, Bacterial DNA-directed RNA polymerase (Bacteria); assay: Inhibition of Escherichia coli DNA-dependent RNA polymerase at 0.1 ug/ml using calf thymus DNA as primer; assay type: protein-complex assay
L1210 [7] = assay: Cytotoxicity against mouse L1210 cells at 1 ug/ml after 48 hrs; assay type: functional; conditions: L1210, 48 h
Mus musculus [8] = assay: Toxicity in mouse P388 cells allografted CDF1 mouse assessed as mortality at 0.4 mg/kg, ip administered on day 1, 5 and 9; assay type: organism-based; design: dose 0.4 mg/kg, route intraperitoneal; conditions: in vivo
P388 [9] = assay: Antitumor activity against mouse P388 cells allografted in CDF1 mouse assessed as survival at 0.4 mg/kg, ip administered on day 1, 5 and 9; assay type: functional; conditions: route intraperitoneal
[10] = target: T1, Bacterial DNA-directed RNA polymerase (Bacteria); assay: Inhibition of Escherichia coli DNA-dependent RNA polymerase at 0.5 ug/ml using Micrococcus luteus DNA as primer; assay type: protein-complex assay
Calf thymus DNA [11] = assay: Binding affinity to calf thymus DNA at 1 x 10^-5 M by thermal denaturation assay; assay type: nucleic-acid assay; conditions: Bos taurus
[12] = target: T1, Bacterial DNA-directed RNA polymerase (Bacteria); assay: Inhibition of Escherichia coli DNA-dependent RNA polymerase at 20 ug/ml using Micrococcus luteus DNA as primer; assay type: protein-complex assay
[13] = target: T1, Bacterial DNA-directed RNA polymerase (Bacteria); assay: Inhibition of Escherichia coli DNA-dependent RNA polymerase at 1 ug/ml using Micrococcus luteus DNA as primer; assay type: protein-complex assay
P388 [14] = assay: Antitumor activity against mouse P388 cells allografted in CDF1 mouse assessed as survival at 0.6 mg/kg, ip administered on day 1, 5 and 9; assay type: functional; conditions: route intraperitoneal
[15] = target: T1, Bacterial DNA-directed RNA polymerase (Bacteria); assay: Inhibition of Escherichia coli DNA-dependent RNA polymerase at 2.5 ug/ml using calf thymus DNA as primer; assay type: protein-complex assay
P388 [16] = assay: Antitumor activity against mouse P388 cells allografted in CDF1 mouse assessed as survival at 0.08 mg/kg, ip administered on day 1, 5 and 9; assay type: functional; conditions: route intraperitoneal
[17] = target: T1, Bacterial DNA-directed RNA polymerase (Bacteria); assay: Inhibition of Escherichia coli DNA-dependent RNA polymerase at 20 ug/ml using calf thymus DNA as primer; assay type: protein-complex assay
P388 [18] = assay: Antitumor activity against mouse P388 cells allografted in CDF1 mouse assessed as survival at 0.18 mg/kg, ip administered on day 1, 5 and 9; assay type: functional; conditions: route intraperitoneal
L1210 [19] = assay: Cytotoxicity against mouse L1210 cells at 10 ug/ml after 48 hrs; assay type: functional; conditions: L1210, 48 h
L1210 [20] = assay: Cytotoxicity against mouse L1210 cells at 0.1 ug/ml after 48 hrs; assay type: functional; conditions: L1210, 48 h
[21] = target: T1, Bacterial DNA-directed RNA polymerase (Bacteria); assay: Inhibition of Escherichia coli DNA-dependent RNA polymerase at 10 ug/ml using calf thymus DNA as primer; assay type: protein-complex assay
Calf thymus DNA [22] = assay: Binding affinity to calf thymus DNA at 1 x 10^-5 M after 30 mins by circular dichroism analysis; assay type: nucleic-acid assay; conditions: Bos taurus
[23] = target: Bacterial DNA-directed RNA polymerase (Bacteria, UniProt P0A7Z4+P0A800+P0A8T7+P0A8V2); assay: Inhibition of Escherichia coli DNA-dependent RNA polymerase; assay type: protein-complex assay
Mus musculus [24] = assay: Toxicity in mouse P388 cells allografted CDF1 mouse assessed as mortality at 0.6 mg/kg, ip administered on day 1, 5 and 9; assay type: organism-based; design: dose 0.6 mg/kg, route intraperitoneal; conditions: in vivo
Mus musculus [25] = assay: Toxicity in mouse P388 cells allografted CDF1 mouse assessed as weight loss at 0.18 mg/kg, ip administered on day 1, 5 and 9; assay type: organism-based; design: dose 0.18 mg/kg, route intraperitoneal; conditions: in vivo
L1210 [26] = assay: Cytotoxicity against mouse L1210 cells at 0.5 ug/ml after 48 hrs; assay type: functional; conditions: L1210, 48 h
[27] = target: T1, Bacterial DNA-directed RNA polymerase (Bacteria); assay: Inhibition of Escherichia coli DNA-dependent RNA polymerase at 5 ug/ml using calf thymus DNA as primer; assay type: protein-complex assay
[28] = target: T1, Bacterial DNA-directed RNA polymerase (Bacteria); assay: Inhibition of Escherichia coli DNA-dependent RNA polymerase at 0.05 ug/ml using calf thymus DNA as primer; assay type: protein-complex assay
L1210 [29] = assay: Cytotoxicity against mouse L1210 cells at 0.05 ug/ml after 48 hrs; assay type: functional; conditions: L1210, 48 h
P388 [30] = assay: Antitumor activity against mouse P388 cells allografted in CDF1 mouse assessed as survival at 0.12 mg/kg, ip administered on day 1, 5 and 9; assay type: functional; conditions: route intraperitoneal
[31] = target: T1, Bacterial DNA-directed RNA polymerase (Bacteria); assay: Inhibition of Escherichia coli DNA-dependent RNA polymerase at 2.5 ug/ml using Micrococcus luteus DNA as primer; assay type: protein-complex assay
L1210 [32] = assay: Cytotoxicity against mouse L1210 cells at 5 ug/ml after 48 hrs; assay type: functional; conditions: L1210, 48 h
[33] = target: T1, Bacterial DNA-directed RNA polymerase (Bacteria); assay: Inhibition of Escherichia coli DNA-dependent RNA polymerase at 10 ug/ml using Micrococcus luteus DNA as primer; assay type: protein-complex assay
Mus musculus [34] = assay: Toxicity in mouse P388 cells allografted CDF1 mouse assessed as mortality at 0.27 mg/kg, ip administered on day 1, 5 and 9; assay type: organism-based; design: dose 0.27 mg/kg, route intraperitoneal; conditions: in vivo
[35] = target: T1, Bacterial DNA-directed RNA polymerase (Bacteria); assay: Inhibition of Escherichia coli DNA-dependent RNA polymerase at 0.25 ug/ml using calf thymus DNA as primer; assay type: protein-complex assay
P388 [36] = assay: Antitumor activity against mouse P388 cells allografted in CDF1 mouse assessed as survival at 0.27 mg/kg, ip administered on day 1, 5 and 9; assay type: functional; conditions: route intraperitoneal
[37] = target: T1, Bacterial DNA-directed RNA polymerase (Bacteria); assay: Inhibition of Escherichia coli DNA-dependent RNA polymerase at 1 ug/ml using calf thymus DNA as primer; assay type: protein-complex assay
[38] = target: T1, Bacterial DNA-directed RNA polymerase (Bacteria); assay: Inhibition of Escherichia coli DNA-dependent RNA polymerase at 0.5 ug/ml using calf thymus DNA as primer; assay type: protein-complex assay
L1210 [39] = assay: Cytotoxicity against mouse L1210 cells at 0.01 ug/ml after 48 hrs; assay type: functional; conditions: L1210, 48 h

T1 sequence (P0A7Z4 whole entry partner): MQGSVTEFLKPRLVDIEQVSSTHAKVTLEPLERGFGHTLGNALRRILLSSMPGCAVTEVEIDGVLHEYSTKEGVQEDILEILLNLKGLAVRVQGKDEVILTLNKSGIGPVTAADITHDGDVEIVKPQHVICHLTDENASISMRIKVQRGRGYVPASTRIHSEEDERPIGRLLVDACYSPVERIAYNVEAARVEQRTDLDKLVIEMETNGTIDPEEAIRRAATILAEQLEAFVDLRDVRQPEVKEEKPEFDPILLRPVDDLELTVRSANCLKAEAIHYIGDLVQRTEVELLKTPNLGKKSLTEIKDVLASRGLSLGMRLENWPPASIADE
T1 sequence (P0A800 2-91 partner limits assumed): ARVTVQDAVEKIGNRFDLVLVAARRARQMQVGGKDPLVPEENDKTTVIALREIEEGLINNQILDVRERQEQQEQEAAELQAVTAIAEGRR
T1 sequence (P0A8T7 whole entry partner): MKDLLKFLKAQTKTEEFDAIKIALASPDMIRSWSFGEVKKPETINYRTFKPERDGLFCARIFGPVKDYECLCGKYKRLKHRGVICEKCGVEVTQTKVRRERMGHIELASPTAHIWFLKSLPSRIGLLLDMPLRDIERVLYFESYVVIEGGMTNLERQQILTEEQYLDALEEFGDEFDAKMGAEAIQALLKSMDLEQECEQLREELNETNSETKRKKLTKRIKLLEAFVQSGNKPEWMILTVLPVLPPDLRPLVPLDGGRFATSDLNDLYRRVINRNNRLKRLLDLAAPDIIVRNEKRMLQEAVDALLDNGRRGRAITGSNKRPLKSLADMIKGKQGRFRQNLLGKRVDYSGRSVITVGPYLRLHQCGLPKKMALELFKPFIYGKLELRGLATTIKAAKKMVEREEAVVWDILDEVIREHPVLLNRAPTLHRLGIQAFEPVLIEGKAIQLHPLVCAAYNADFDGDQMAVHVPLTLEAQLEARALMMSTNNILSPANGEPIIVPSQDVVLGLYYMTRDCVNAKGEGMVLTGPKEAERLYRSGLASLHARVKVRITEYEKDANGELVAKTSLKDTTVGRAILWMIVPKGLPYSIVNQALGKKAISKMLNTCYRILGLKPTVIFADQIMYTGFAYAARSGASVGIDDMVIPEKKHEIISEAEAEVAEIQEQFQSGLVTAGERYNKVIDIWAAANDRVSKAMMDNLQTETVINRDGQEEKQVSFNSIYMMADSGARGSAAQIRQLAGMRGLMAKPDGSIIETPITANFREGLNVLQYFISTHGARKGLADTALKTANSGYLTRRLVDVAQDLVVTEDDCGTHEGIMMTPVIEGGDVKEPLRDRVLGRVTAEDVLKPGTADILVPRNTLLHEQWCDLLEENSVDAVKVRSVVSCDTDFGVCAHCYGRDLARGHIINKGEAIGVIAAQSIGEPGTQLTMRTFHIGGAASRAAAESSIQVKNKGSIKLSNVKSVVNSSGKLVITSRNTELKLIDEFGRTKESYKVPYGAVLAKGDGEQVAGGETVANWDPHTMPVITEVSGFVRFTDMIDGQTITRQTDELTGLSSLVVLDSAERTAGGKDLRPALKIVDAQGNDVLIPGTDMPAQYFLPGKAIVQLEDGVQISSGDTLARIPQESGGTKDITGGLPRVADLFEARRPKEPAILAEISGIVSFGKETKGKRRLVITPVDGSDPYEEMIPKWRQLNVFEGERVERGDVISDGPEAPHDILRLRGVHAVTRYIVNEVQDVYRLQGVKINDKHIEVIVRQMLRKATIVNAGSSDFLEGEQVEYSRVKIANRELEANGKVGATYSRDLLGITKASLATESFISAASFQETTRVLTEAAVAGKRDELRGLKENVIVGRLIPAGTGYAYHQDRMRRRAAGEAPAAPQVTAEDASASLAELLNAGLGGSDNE
T1 sequence (P0A8V2 whole entry): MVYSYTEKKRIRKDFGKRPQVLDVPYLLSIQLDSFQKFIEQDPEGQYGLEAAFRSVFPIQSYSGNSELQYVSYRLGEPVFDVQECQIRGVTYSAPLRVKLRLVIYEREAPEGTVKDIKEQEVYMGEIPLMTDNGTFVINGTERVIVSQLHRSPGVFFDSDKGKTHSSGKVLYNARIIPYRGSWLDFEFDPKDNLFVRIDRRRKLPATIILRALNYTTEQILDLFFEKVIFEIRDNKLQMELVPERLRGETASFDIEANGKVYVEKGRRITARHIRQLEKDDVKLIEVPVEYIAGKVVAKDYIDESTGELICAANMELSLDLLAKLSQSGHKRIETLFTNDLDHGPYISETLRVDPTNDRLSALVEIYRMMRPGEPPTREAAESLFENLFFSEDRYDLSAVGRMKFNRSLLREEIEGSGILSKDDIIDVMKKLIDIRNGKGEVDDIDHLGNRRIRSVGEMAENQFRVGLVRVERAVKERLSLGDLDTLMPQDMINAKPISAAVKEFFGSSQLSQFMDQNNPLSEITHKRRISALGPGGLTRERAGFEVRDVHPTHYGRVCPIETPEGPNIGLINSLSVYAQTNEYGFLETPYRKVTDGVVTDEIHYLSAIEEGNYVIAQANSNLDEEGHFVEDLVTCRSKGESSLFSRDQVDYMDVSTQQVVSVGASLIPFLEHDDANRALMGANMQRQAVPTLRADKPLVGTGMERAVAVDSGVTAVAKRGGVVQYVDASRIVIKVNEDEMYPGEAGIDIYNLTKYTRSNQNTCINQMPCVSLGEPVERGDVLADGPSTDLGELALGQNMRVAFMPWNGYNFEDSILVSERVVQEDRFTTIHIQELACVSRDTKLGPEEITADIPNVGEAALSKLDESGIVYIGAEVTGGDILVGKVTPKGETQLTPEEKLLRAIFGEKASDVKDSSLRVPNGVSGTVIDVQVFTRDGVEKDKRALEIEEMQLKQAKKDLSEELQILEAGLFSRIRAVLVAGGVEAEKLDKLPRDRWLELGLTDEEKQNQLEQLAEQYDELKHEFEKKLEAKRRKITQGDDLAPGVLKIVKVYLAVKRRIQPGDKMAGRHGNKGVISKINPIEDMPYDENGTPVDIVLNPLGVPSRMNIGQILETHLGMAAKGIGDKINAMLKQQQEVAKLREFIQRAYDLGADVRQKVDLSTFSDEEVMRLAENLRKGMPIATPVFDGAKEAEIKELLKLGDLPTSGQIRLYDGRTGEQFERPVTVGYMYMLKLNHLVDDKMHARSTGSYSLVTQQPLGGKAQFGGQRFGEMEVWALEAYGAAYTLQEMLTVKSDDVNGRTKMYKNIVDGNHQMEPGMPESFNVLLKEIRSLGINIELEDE

**Q.** For `Cc1c2oc3c(C)ccc(C(=O)N[C@@H]4C(=O)N[C@H](C(C)C)C(=O)N5CCC[C@H]5C(=O)N(C)CC(=O)N(C)[C@@H](C(C)C)C(=O)O[C@@H]4C)c3nc-2c(C(=O)N[C@@H]2C(=O)N[C@H](C(C)C)C(=O)N3CCC[C@H]3C(=O)N(C)CC(=O)N(C)[C@@H](C(C)C)C(=O)O[C@@H]2C)c(N)c1=O` [DACTINOMYCIN] (I: T[dV]P[Sar][NMeV] / II: T[dV]P[Sar][NMeV]; ester I:1-I:C, II:1-II:C; linker I:N-II:N via Actinocin(9to1)), which inhibition [1] is on record?
**A.** The inhibition was 95%.

**Q.** What about the inhibition [2] of the same molecule?
**A.** Its inhibition is 7%.

**Q.** And the inhibition [3]?
**A.** Its inhibition is 16%.

**Q.** What about the inhibition [4] of the same molecule?
**A.** Its inhibition is 44%.

**Q.** What about the inhibition at 0.001 µg/mL (L1210 [5]) of the same molecule?
**A.** The inhibition at 0.001 µg/mL was 51%.

**Q.** And the inhibition [6]?
**A.** Its inhibition is 30%.

**Q.** And the inhibition at 1 µg/mL (L1210 [7])?
**A.** Its inhibition at 1 µg/mL is 97%.

**Q.** What about the Activity (Mus musculus [8]) of the same molecule?
**A.** The Activity was “Toxic”.

**Q.** What about the Survival (P388 [9]) of the same molecule?
**A.** Its Survival is 8 days.

**Q.** And the T/C (P388 [9])?
**A.** The T/C was 76%.

**Q.** What about the inhibition [10] of the same molecule?
**A.** Its inhibition is 54%.

**Q.** What about the ΔTm (Calf thymus DNA [11]) of the same molecule?
**A.** The ΔTm was 8.7 °C.

**Q.** What about the inhibition [12] of the same molecule?
**A.** Its inhibition is 99%.

**Q.** What about the inhibition [13] of the same molecule?
**A.** Its inhibition is 72%.

**Q.** And the Survival (P388 [14])?
**A.** The Survival was 5 days.

**Q.** What about the T/C (P388 [14]) of the same molecule?
**A.** Its T/C is 48%.

**Q.** And the inhibition [15]?
**A.** The inhibition was 89%.

**Q.** And the Survival (P388 [16])?
**A.** Its Survival is 15 days.

**Q.** What about the T/C (P388 [16]) of the same molecule?
**A.** Its T/C is 143%.

**Q.** What about the inhibition [17] of the same molecule?
**A.** The inhibition was 100%.

**Q.** What about the Survival (P388 [18]) of the same molecule?
**A.** The Survival was 18 days.

**Q.** And the T/C (P388 [18])?
**A.** The T/C was 171%.

**Q.** And the inhibition at 10 µg/mL (L1210 [19])?
**A.** The inhibition at 10 µg/mL was 98%.

**Q.** What about the inhibition at 0.1 µg/mL (L1210 [20]) of the same molecule?
**A.** Its inhibition at 0.1 µg/mL is 78%.

**Q.** And the inhibition [21]?
**A.** The inhibition was 96%.

**Q.** What about the Activity (Calf thymus DNA [22]) of the same molecule?
**A.** Its Activity is “Active”.

**Q.** And the IC50 [23]?
**A.** Its IC50 is 159 nM.

**Q.** What about the Activity (Mus musculus [24]) of the same molecule?
**A.** The Activity was “Toxic”.

**Q.** And the Activity (Mus musculus [25])?
**A.** The Activity was “Toxic”.

**Q.** And the inhibition at 0.5 µg/mL (L1210 [26])?
**A.** The inhibition at 0.5 µg/mL was 99%.

**Q.** And the inhibition [27]?
**A.** The inhibition was 93%.

**Q.** What about the inhibition [28] of the same molecule?
**A.** The inhibition was 17%.

**Q.** And the inhibition at 0.05 µg/mL (L1210 [29])?
**A.** Its inhibition at 0.05 µg/mL is 78%.

**Q.** And the Survival (P388 [30])?
**A.** Its Survival is 19 days.

**Q.** What about the T/C (P388 [30]) of the same molecule?
**A.** Its T/C is 181%.

**Q.** What about the inhibition [31] of the same molecule?
**A.** The inhibition was 92%.

**Q.** What about the inhibition at 5 µg/mL (L1210 [32]) of the same molecule?
**A.** The inhibition at 5 µg/mL was 99%.

**Q.** What about the inhibition [33] of the same molecule?
**A.** The inhibition was 99%.

**Q.** And the Activity (Mus musculus [34])?
**A.** The Activity was “Toxic”.

**Q.** And the inhibition [35]?
**A.** The inhibition was 62%.

**Q.** What about the Survival (P388 [36]) of the same molecule?
**A.** Its Survival is 10 days.

**Q.** What about the T/C (P388 [36]) of the same molecule?
**A.** The T/C was 95%.

**Q.** And the inhibition [37]?
**A.** Its inhibition is 79%.

**Q.** And the inhibition [38]?
**A.** The inhibition was 61%.

**Q.** What about the inhibition at 0.01 µg/mL (L1210 [39]) of the same molecule?
**A.** The inhibition at 0.01 µg/mL was 57%.
